Measured values as given in patent US9216181B2 (Southwest Research Institute, priority 2011, dated 2015).

Experiments:
murine calvaria bone = assay: Anabolic assay using murine calvaria, histology (Study II); assay type: cell-based, mouse; conditions: calvaria of 4 day old pups, 5-20 μM, day 4 and day 7, 10× microscopy
Description: To investigate the biological effects on bone of the compounds from the PCR assays a number of assays were performed using murine calvaria bone as follows. Following procedures similar to those outlined above in Study I, murine calvaria bone was removed from 4 day old pups form CD-1 time pregnant mice from Harlan (15 day gestation at time of arrival). The pups were decapitated with scissors after dipping the pups in 95% ethanol. The scalp was then removed. The heads were placed in a Petri dish with BGJ medium. The calvaria bones were cut using curved scissors to make a cut along the suture of the calvaria bone and the two parts were carefully removed from the brain. The calvaria were trimmed avoiding the suture area. The collected tissue was placed into media (3 bones per group) including BGJ+L-Glutamine with 1% Pen/Strep and 1% BSA. The dish including the bones was placed into a 37° C. and 5% CO2 incubator.
The selected compounds were prepared in a solution of dimethyl sulfoxide (DMSO) to form stock solutions of each compound, with the exception of terfenadine, which was prepared in ethanol. Specifically, a 10 mM stock solution was prepared for PS1, a 25 mM stock solution was prepared for carebastine and a 50 mM stock solution was prepared for ebastine, #6 terfenadine, fexofenadine and astemizole. […]

BMP-2 [1] = assay: Study II real time PCR, BMP-2 up-regulation in mesenchymal stem cells; assay type: cell-based, human; conditions: hMSC, 24 hour, 2.5, 5 and 10 μM
Description: The testing procedure follows.
Cells based assays are done using 6 wells tissue culture plates, seeded with human mesenchymal stem cells (MSC) from Lonza, culture at 80% density. After seeding cells are treated with selected compounds at 10 μM, 5 μM and 2.5 μM for a 24 hour period, mRNA is collected using Qiagen kit RNAeasy kit and cDNA is prepared with same Qiagen kit, RT-PCR is done using kit from SABiosciences to measure gene expression for BMP2, 4 and 7 and run in Applied Biosystems Step One Plus. The protocol for mRNA isolation is described below.
Human mesenchymal stem cell growth medium passage 3 plated in a 6 well plate at 2.5×10^5 cells/well in hMSC Basal Medium+BulletKit (50 ml Growth Supplement, 10 ml L-Glutamine and 0.5 ml Gentamicin Sulfate Amphotericin-B) for 24 hrs. The compounds to be tested were added and after 24 hrs the media was aspirated, rinsed well once with PBS, and aspirated again. 350 ul of Lysis Buffer was added and the cells were stored at −20° C.
The lysate was homogenized by pipetting the lysate directly into a QIA shredder spin column placed in a 2-mL collection tube, and centrifuge for 2 min at full speed. 70% ethanol was added (1 vol. or […]) to the homogenized lysate (now at the bottom of the collection tube), and mixed well by pipetting. Up to 700 μL of the sample was transferred, including any precipitate that may have formed, to an RNeasy spin column placed in a 2-mL collection tube. This was centrifuged for 15 seconds at full speed. 700 μL of Buffer RW1 was added to the RNeasy spin column. This was centrifuged for 15 seconds at full speed to wash the spin column membrane.
500 μL of Buffer RPE was added to the RNeasy spin column and centrifuged for 15 seconds at full speed. The flow through was discarded. 500 μL of Buffer RPE was added to the RNeasy spin column and centrifuged for 2 minutes at full speed to wash the spin column membrane. The RNeasy spin column was removed from the collection tube and the flow-through was discarded.
The RNeasy spin column was placed in a new 2-mL collection tube and centrifuged for 1 minute at full speed. The RNeasy spin column was removed from the collection tube, and the flow-through was discarded. The RNeasy spin column was placed in a new 1.5-mL collection tube. 30-50 μL of RNase-free water was added directly to the spin column membrane and this was centrifuged for 1 minute at full speed to elute the RNA.

C3H10T1/2 cells = assay: Visual observation of morphological differentiation of C3H10T1/2 MSC; assay type: cell-based, mouse; conditions: enhanced medium withdrawn before addition
Description: The C3H10T1/2 cells were grown in an enhanced growth medium of BGjb (Irvine Scientific, Santa Ana, Calif.).

BMP2 = assay: Quantitative PCR (TaqMan, ΔΔCt) of BMP2 in human mesenchymal stem cells; assay type: cell-based; conditions: Homo sapiens, Mesenchymal stem cells; BMP2 mRNA, hMSC, 10 μM, vs untreated, 18S reference; positive control compounds (Table 1); read-out: q-PCR Fold increase
BMP-2 [2] = assay: BMP-2 fold change of JHU library compounds, confirmed by qPCR; assay type: cell-based, human; conditions: non-treated = 1.00
BMP-2 [3] = assay: Real time PCR of BMP-2 gene expression in human MSC (Cells-to-Ct); assay type: cell-based; conditions: BMP-2 mRNA, hMSC, 5-10 μM, 24 hours, vs untreated; positive control compounds (Table 1)

SMILES	activity in bone calvaria assay / effect on BMP-2 gene expression, qualitative histology (murine calvaria bone)	fold change (PCR) (BMP-2 [1]) [fold]	morphological changes by visual observation (C3H10T1/2 cells)	fold induction at 10 µM (BMP2)	fold induction at 10 µM (BMP-2 [2]; Homo sapiens, read-out: Fold change (BMP-2), control compounds at 10 μM)	Fold change (BMP-2) (BMP-2 [2]; JHU library compounds) [fold]	RT PCR Fold increase (BMP-2 [3]) [fold]
CC(C)(C(=O)O)c1ccc(C(=O)CCCN2CCC(OC(c3ccccc3)c3ccccc3)CC2)cc1 [Carebastine]	relatively active	≤ 1	–	–	–	–	–
CC[C@H](C)C(=O)O[C@H]1C[C@@H](C)C=C2C=C[C@H](C)[C@H](CC[C@@H]3C[C@@H](O)CC(=O)O3)[C@H]21 [Lovastatin]	–	–	generated more elongated looking cells with slowed cell proliferation	10.7	18	182.00	59.9
